# According to PubChem BioAssay AID2060622 (Molecular Pharmacology Branch, DTP, NCI, 2025):
# Test system: 242566-281-R-J2-PDC complex spheroid viability
# Test: Anticancer human tumor 242566-281-R-J2-PDC patient-derived pancreatic carcinoma cell line growth inhibition [CLK]
# Details: for IC50: curve of first compound; for viability, T/C: stronger effect = lower value
# Outline: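 Multi-cell-type spheroids combined patient-derived tumor cells with HUVEC endothelial cells and human mesenchymal stem cells. Paired agents were dosed in half-log steps down from about clinical Cmax, or from 10 microM where Cmax was unknown.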
# [1] = second compound 0.0316 µM, first compound 0.00949 µM
# [2] = second compound 0.0316 µM, first compound 0.03 µM
# [3] = second compound 0.0316 µM, first compound 0.0949 µM
# [4] = second compound 0.0316 µM, first compound 0.3 µM
# [5] = second compound 0.1 µM, first compound 0.00949 µM
# [6] = second compound 0.1 µM, first compound 0.03 µM
# [7] = second compound 0.1 µM, first compound 0.0949 µM
# [8] = second compound 0.1 µM, first compound 0.3 µM
# [9] = second compound 0.316 µM, first compound 0.00949 µM
# [10] = second compound 0.316 µM, first compound 0.03 µM
# [11] = second compound 0.316 µM, first compound 0.0949 µM
# [12] = second compound 0.316 µM, first compound 0.3 µM
# [13] = second compound 1 µM, first compound 0.00949 µM
# [14] = second compound 1 µM, first compound 0.03 µM
# [15] = second compound 1 µM, first compound 0.0949 µM
# [16] = second compound 1 µM, first compound 0.3 µM
# [17] = second compound 3.16 µM, first compound 0.00949 µM
# [18] = second compound 3.16 µM, first compound 0.03 µM
# [19] = second compound 3.16 µM, first compound 0.0949 µM
# [20] = second compound 3.16 µM, first compound 0.3 µM
# [21] = second compound 10 µM, first compound 0.00949 µM
# [22] = second compound 10 µM, first compound 0.03 µM
# [23] = second compound 10 µM, first compound 0.0949 µM
# [24] = second compound 10 µM, first compound 0.3 µM
# [25] = second compound 0.0316 µM, first compound 0.0316 µM
# [26] = second compound 0.0316 µM, first compound 0.1 µM
# [27] = second compound 0.0316 µM, first compound 0.316 µM
# [28] = second compound 0.0316 µM, first compound 1 µM
# [29] = second compound 0.0316 µM, first compound 3.16 µM
# [30] = second compound 0.0316 µM, first compound 10 µM
# [31] = second compound 0.1 µM, first compound 0.0316 µM
# [32] = second compound 0.1 µM, first compound 0.1 µM
# [33] = second compound 0.1 µM, first compound 0.316 µM
# [34] = second compound 0.1 µM, first compound 1 µM
# [35] = second compound 0.1 µM, first compound 3.16 µM
# [36] = second compound 0.1 µM, first compound 10 µM
# [37] = second compound 0.316 µM, first compound 0.0316 µM
# [38] = second compound 0.316 µM, first compound 0.1 µM
# [39] = second compound 0.316 µM, first compound 0.316 µM
# [40] = second compound 0.316 µM, first compound 1 µM
# [41] = second compound 0.316 µM, first compound 3.16 µM
# [42] = second compound 0.316 µM, first compound 10 µM
# [43] = second compound 1 µM, first compound 0.0316 µM
# [44] = second compound 1 µM, first compound 0.1 µM
# [45] = second compound 1 µM, first compound 0.316 µM
# [46] = second compound 1 µM, first compound 1 µM
# [47] = second compound 1 µM, first compound 3.16 µM
# [48] = second compound 1 µM, first compound 10 µM
# [49] = second compound 3.16 µM, first compound 0.0316 µM
# [50] = second compound 3.16 µM, first compound 0.1 µM
# [51] = second compound 3.16 µM, first compound 0.316 µM
# [52] = second compound 3.16 µM, first compound 1 µM
# [53] = second compound 3.16 µM, first compound 3.16 µM
# [54] = second compound 3.16 µM, first compound 10 µM
# [55] = second compound 10 µM, first compound 0.0316 µM
# [56] = second compound 10 µM, first compound 0.1 µM
# [57] = second compound 10 µM, first compound 0.316 µM
# [58] = second compound 10 µM, first compound 1 µM
# [59] = second compound 10 µM, first compound 3.16 µM
# [60] = second compound 10 µM, first compound 10 µM
# 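Also: spheroids exposed to compounds for 7 days before readout.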
# 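For viability, T/C in this document: 100% = DMSO vehicle control wells.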
smiles,measurement,setting,value
C=CC(=O)Nc1cc(Nc2nccc(-c3cn(C)c4ccccc34)n2)c(OC)cc1N(C)CCN(C)C + CNC(=O)c1ccc(Nc2nc(OC3CCCC3)c3c(-c4ccc5nc(C)oc5c4)c[nH]c3n2)c(OC)c1,IC50,second compound 0.0316 µM,> 300 nM
same,IC50,second compound 0.1 µM,> 300 nM
same,IC50,second compound 0.316 µM,> 300 nM
same,IC50,second compound 1 µM,> 300 nM
same,IC50,second compound 3.16 µM,2.72 nM
same,IC50,second compound 10 µM,3.17 nM
same,"viability, T/C","second compound 0.0316 µM, first compound 0.000949 µM",83.7%
same,"viability, T/C","second compound 0.0316 µM, first compound 0.003 µM",97%
same,"viability, T/C",[1],101%
same,"viability, T/C",[2],108%
same,"viability, T/C",[3],110%
same,"viability, T/C",[4],92.8%
same,"viability, T/C","second compound 0.1 µM, first compound 0.000949 µM",96.1%
same,"viability, T/C","second compound 0.1 µM, first compound 0.003 µM",81.7%
same,"viability, T/C",[5],80.1%
same,"viability, T/C",[6],99.5%
same,"viability, T/C",[7],95.5%
same,"viability, T/C",[8],81.4%
same,"viability, T/C","second compound 0.316 µM, first compound 0.000949 µM",89.4%
same,"viability, T/C","second compound 0.316 µM, first compound 0.003 µM",76%
same,"viability, T/C",[9],72.2%
same,"viability, T/C",[10],77.6%
same,"viability, T/C",[11],81.4%
same,"viability, T/C",[12],80.2%
same,"viability, T/C","second compound 1 µM, first compound 0.000949 µM",69.7%
same,"viability, T/C","second compound 1 µM, first compound 0.003 µM",59%
same,"viability, T/C",[13],58.9%
same,"viability, T/C",[14],61.8%
same,"viability, T/C",[15],63.7%
same,"viability, T/C",[16],57.5%
same,"viability, T/C","second compound 3.16 µM, first compound 0.000949 µM",55.9%
same,"viability, T/C","second compound 3.16 µM, first compound 0.003 µM",50%
same,"viability, T/C",[17],45.7%
same,"viability, T/C",[18],51.9%
same,"viability, T/C",[19],46.4%
same,"viability, T/C",[20],48.8%
same,"viability, T/C","second compound 10 µM, first compound 0.000949 µM",49.1%
same,"viability, T/C","second compound 10 µM, first compound 0.003 µM",51.2%
same,"viability, T/C",[21],51.1%
same,"viability, T/C",[22],47.7%
same,"viability, T/C",[23],43.1%
same,"viability, T/C",[24],44.9%
CC1(C)CCC(CN2CCN(c3ccc(C(=O)NS(=O)(=O)c4ccc(NCC5CCOCC5)c([N+](=O)[O-])c4)c(Oc4cnc5[nH]ccc5c4)c3)CC2)=C(c2ccc(Cl)cc2)C1 + CNC(=O)c1ccc(Nc2nc(OC3CCCC3)c3c(-c4ccc5nc(C)oc5c4)c[nH]c3n2)c(OC)c1,IC50,second compound 0.0316 µM,> 10000 nM
same,IC50,second compound 0.1 µM,> 10000 nM
same,IC50,second compound 0.316 µM,10000 nM
same,IC50,second compound 1 µM,> 10000 nM
same,IC50,second compound 3.16 µM,> 10000 nM
same,IC50,second compound 10 µM,> 10000 nM
same,"viability, T/C",[25],80%
same,"viability, T/C",[26],95.8%
same,"viability, T/C",[27],113%
same,"viability, T/C",[28],123%
same,"viability, T/C",[29],115%
same,"viability, T/C",[30],96.4%
same,"viability, T/C",[31],83%
same,"viability, T/C",[32],92%
same,"viability, T/C",[33],97.2%
same,"viability, T/C",[34],131%
same,"viability, T/C",[35],105%
same,"viability, T/C",[36],73.9%
same,"viability, T/C",[37],87.3%
same,"viability, T/C",[38],96.6%
same,"viability, T/C",[39],72%
same,"viability, T/C",[40],92.4%
same,"viability, T/C",[41],84.8%
same,"viability, T/C",[42],50%
same,"viability, T/C",[43],71.2%
same,"viability, T/C",[44],68.4%
same,"viability, T/C",[45],69.7%
same,"viability, T/C",[46],73%
same,"viability, T/C",[47],77.9%
same,"viability, T/C",[48],60.4%
same,"viability, T/C",[49],51.9%
same,"viability, T/C",[50],54%
same,"viability, T/C",[51],57.8%
same,"viability, T/C",[52],61.8%
same,"viability, T/C",[53],66.3%
same,"viability, T/C",[54],45.4%
same,"viability, T/C",[55],54.6%
same,"viability, T/C",[56],49.2%
same,"viability, T/C",[57],54.3%
same,"viability, T/C",[58],55.3%
same,"viability, T/C",[59],60.2%
same,"viability, T/C",[60],46.8%
NC(=O)C(=Cn1cnc(-c2cc(C(F)(F)F)cc(C(F)(F)F)c2)n1)c1cncnc1 + CNC(=O)c1ccc(Nc2nc(OC3CCCC3)c3c(-c4ccc5nc(C)oc5c4)c[nH]c3n2)c(OC)c1,IC50,second compound 0.0316 µM,> 3000 nM
same,IC50,second compound 0.1 µM,> 3000 nM
same,IC50,second compound 0.316 µM,1980 nM
same,IC50,second compound 1 µM,758 nM
same,IC50,second compound 3.16 µM,409 nM
same,IC50,second compound 10 µM,308 nM
same,"viability, T/C",[1],119%
same,"viability, T/C",[2],129%
same,"viability, T/C",[3],128%
same,"viability, T/C",[4],141%
same,"viability, T/C","second compound 0.0316 µM, first compound 0.949 µM",109%
same,"viability, T/C","second compound 0.0316 µM, first compound 3 µM",57.1%
same,"viability, T/C",[5],109%
same,"viability, T/C",[6],125%
same,"viability, T/C",[7],130%
same,"viability, T/C",[8],129%
same,"viability, T/C","second compound 0.1 µM, first compound 0.949 µM",98%
same,"viability, T/C","second compound 0.1 µM, first compound 3 µM",51.1%
same,"viability, T/C",[9],106%
same,"viability, T/C",[10],91.5%
same,"viability, T/C",[11],117%
same,"viability, T/C",[12],122%
same,"viability, T/C","second compound 0.316 µM, first compound 0.949 µM",69.1%
same,"viability, T/C","second compound 0.316 µM, first compound 3 µM",39.2%
same,"viability, T/C",[13],87.2%
same,"viability, T/C",[14],99.1%
same,"viability, T/C",[15],87.2%
same,"viability, T/C",[16],86.4%
same,"viability, T/C","second compound 1 µM, first compound 0.949 µM",41.2%
same,"viability, T/C","second compound 1 µM, first compound 3 µM",12.4%
same,"viability, T/C",[17],77.4%
same,"viability, T/C",[18],82.6%
same,"viability, T/C",[19],78.3%
same,"viability, T/C",[20],57.9%
same,"viability, T/C","second compound 3.16 µM, first compound 0.949 µM",25.8%
same,"viability, T/C","second compound 3.16 µM, first compound 3 µM",5.98%
same,"viability, T/C",[21],72.5%
same,"viability, T/C",[22],70.6%
same,"viability, T/C",[23],71.8%
same,"viability, T/C",[24],49.8%
same,"viability, T/C","second compound 10 µM, first compound 0.949 µM",17.3%
same,"viability, T/C","second compound 10 µM, first compound 3 µM",4.4%
Nc1ccccc1NC(=O)c1ccc(CNC(=O)OCc2cccnc2)cc1 + CNC(=O)c1ccc(Nc2nc(OC3CCCC3)c3c(-c4ccc5nc(C)oc5c4)c[nH]c3n2)c(OC)c1,IC50,second compound 0.0316 µM,7700 nM
same,IC50,second compound 0.1 µM,7540 nM
same,IC50,second compound 0.316 µM,5800 nM
same,IC50,second compound 1 µM,2700 nM
same,IC50,second compound 3.16 µM,1670 nM
same,IC50,second compound 10 µM,< 31.6 nM
same,"viability, T/C",[25],86.9%
same,"viability, T/C",[26],101%
same,"viability, T/C",[27],101%
same,"viability, T/C",[28],149%
same,"viability, T/C",[29],116%
same,"viability, T/C",[30],32.2%
same,"viability, T/C",[31],81.1%
same,"viability, T/C",[32],104%
same,"viability, T/C",[33],103%
same,"viability, T/C",[34],128%
same,"viability, T/C",[35],109%
same,"viability, T/C",[36],32.1%
same,"viability, T/C",[37],89.6%
same,"viability, T/C",[38],78%
same,"viability, T/C",[39],85.6%
same,"viability, T/C",[40],94.7%
same,"viability, T/C",[41],80.8%
same,"viability, T/C",[42],22.2%
same,"viability, T/C",[43],75.7%
same,"viability, T/C",[44],70.2%
same,"viability, T/C",[45],61.8%
same,"viability, T/C",[46],73.4%
same,"viability, T/C",[47],46.8%
same,"viability, T/C",[48],14%
same,"viability, T/C",[49],60.4%
same,"viability, T/C",[50],52.9%
same,"viability, T/C",[51],52.5%
same,"viability, T/C",[52],63.9%
same,"viability, T/C",[53],40.5%
same,"viability, T/C",[54],10.3%
same,"viability, T/C",[55],50%
same,"viability, T/C",[56],44.4%
same,"viability, T/C",[57],48.6%
same,"viability, T/C",[58],54%
same,"viability, T/C",[59],37.6%
same,"viability, T/C",[60],7.66%
